Several values for one entry are separate records, joined by “and”; a condition that tells them apart may be missing. Equal values may be shown once. Read-outs that look alike come from different tables or passages of the source.
Assays:
His-tagged BCL-xL = target: T1, His-tagged BCL-xL (Homo sapiens, UniProt Q07817); experiment: AlphaScreen competitive binary binding, BCL-xL (biotin-BAD peptide)
T1 construct: purchased Sigma-Aldrich SRP0187
Description: The reagents were diluted in a buffer containing 250 mM HEPES pH 7.5, 1 M NaCl, 1% BSA, and 0.05% Tween-80. His-tagged BCL-xL (0.5 nM, Cat. No. SRP0187, Sigma-Aldrich) or BCL-2 (1 nM, Cat. No. SRP0186, Sigma-Aldrich) were incubated with serial diluted 753a or 753b and 2 nM biotin-tagged BAD (biotin-[…] amino-terminal, AnaSpec, for BCL-xL) or 10 nM BIM peptides (biotin-[…] N-terminal, AnaSpec, for BCL-2) to a final volume of 40 µl in a 96-well PCR plate. […] After incubation for 2 h, 5 µl 6× His-acceptor beads (Cat. No. AL128M, PerkinElmer) were added to each well at 20 µg/ml final concentration and incubated for 1 h. Then 5 µl streptavidin-donor beads were added (Cat. No. 6760002, PerkinElmer) to each well at 20 µg/ml final concentration and incubated for 45 min. At the end of the incubation period, 17 µl of each sample was transferred in adjacent wells of 384-well proxy plate (Cat. No. 6008280, PerkinElmer). The plate was scanned using the Alpha program on Biotek’s Synergy Neo2 multimode plate reader. The inhibition constant (Ki) was calculated using the non-linear regression, one site, competitive binding, Fit Ki function on GraphPad Prism 9 software, based on experimentally determined dissociation constant (Kd) for each protein–peptide pair.

Kasumi-1 cells = experiment: Viability (MTS) of Kasumi-1 AML cells; assay type: cell-based, human; conditions: for viability at 0.0411523 µM / viability at 0.37037 µM / viability at 1.11111 µM / viability at 3.33333 µM / viability at 10 µM / viability at […] / IC50: Homo sapiens; for viability at 0.0411523 µM: Kasumi 1, Concentration 0.0411523 uM; for viability at 0.0411523 µM / viability at 0.37037 µM / viability at 1.11111 µM / viability at 3.33333 µM / viability at 10 µM / viability at […]: Supplementary Fig. 12b; for viability at 0.37037 µM: Kasumi 1, Concentration 0.37037 uM; for viability at 1.11111 µM: Kasumi 1, Concentration 1.11111 uM; for viability at 3.33333 µM: Kasumi 1, Concentration 3.33333 uM; for viability at 10 µM: Kasumi 1, Concentration 10 uM; for viability at […]: Kasumi 1, Concentration […]; for IC50: Kasumi 1, 72 h
[1] = Average of 3 wells, read-out: MTS viability, percent of 0 uM control, Average
[2] = single well, read-out: MTS viability, corrected absorbance 490 as percent of 0 uM control

T1 sequence (Q07817 whole entry): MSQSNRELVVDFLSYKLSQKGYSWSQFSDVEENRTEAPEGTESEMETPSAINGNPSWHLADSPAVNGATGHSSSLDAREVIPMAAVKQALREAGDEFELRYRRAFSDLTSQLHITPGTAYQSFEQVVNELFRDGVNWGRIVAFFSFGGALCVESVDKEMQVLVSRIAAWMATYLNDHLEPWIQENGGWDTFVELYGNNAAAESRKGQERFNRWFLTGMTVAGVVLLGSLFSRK

Alpha signal (raw counts) (His-tagged BCL-xL; BCL-xL Rep-2, plate row C, 1.25 uM): 22256 and 28959 | Alpha signal (raw counts) (His-tagged BCL-xL; BCL-xL Rep-2, plate row D, 0.3125 uM): 58501 and 47695 | Alpha signal (raw counts) (His-tagged BCL-xL; BCL-xL Rep-2, plate row E, 0.078125 uM): 165323 and 140416 | Alpha signal (raw counts) (His-tagged BCL-xL; BCL-xL Rep-2, plate row F, 0.0195312 uM): 561843 and 528857 | Alpha signal (raw counts) (His-tagged BCL-xL; BCL-xL Rep-2, plate row G, 0.00488281 uM): 767546 and 773677 | Alpha signal (raw counts) (His-tagged BCL-xL; BCL-xL Rep-2, plate row H, 0.0012207 uM): 1070160 and 1175743 | Alpha signal (raw counts) (His-tagged BCL-xL; BCL-xL Rep-2, plate row I, 0.000305176 uM): 1221423 and 1198497 | Alpha signal (raw counts) (His-tagged BCL-xL; BCL-xL Rep-2, plate row K, 1.90735e-5 uM): 1346687 and 1389856
Compound: CC1(C)CCC(c2ccc(Cl)cc2)=C(CN2CCN(c3ccc(C(=O)NS(=O)(=O)c4ccc(N[C@H](CCN5CCOCC5)CSc5ccccc5)c(S(=O)(=O)C(F)(F)F)c4)cc3)CC2)C1 [ABT263, navitoclax]
Luminescence (raw plate reading) (Kasumi-1 cells; 3.90625 nM (plate column 2), Fig. 7a): 652130 and 630259 and 658966 and 744397 | Luminescence (raw plate reading) (Kasumi-1 cells; 7.8125 nM (plate column 3), Fig. 7a): 632892 and 633903 and 634701 and 712997 | Luminescence (raw plate reading) (Kasumi-1 cells; 15.625 nM (plate column 4), Fig. 7a): 642408 and 622919 and 622003 and 704279 | Luminescence (raw plate reading) (Kasumi-1 cells; 31.25 nM (plate column 5), Fig. 7a): 622577 and 612176 and 601421 and 652847 | Luminescence (raw plate reading) (Kasumi-1 cells; 62.5 nM (plate column 6), Fig. 7a): 542999 and 553178 and 531814 and 597127 | Luminescence (raw plate reading) (Kasumi-1 cells; 125 nM (plate column 7), Fig. 7a): 381320 and 423693 and 412676 and 432347 | Luminescence (raw plate reading) (Kasumi-1 cells; 250 nM (plate column 8), Fig. 7a): 247450 and 230935 and 221189 and 256346 | Luminescence (raw plate reading) (Kasumi-1 cells; 500 nM (plate column 9), Fig. 7a): 119937 and 119731 and 112901 and 107498 | Luminescence (raw plate reading) (Kasumi-1 cells; 1000 nM (plate column 10), Fig. 7a): 56843 and 48094 and 45547 and 41795 | Luminescence (raw plate reading) (Kasumi-1 cells; 2000 nM = 2U (plate column 11), Fig. 7a): 20891 and 18712 and 20895 and 17813 | Luminescence (raw plate reading) (Kasumi-1 cells; 4000 nM = 4U (plate column 12), Fig. 7a): 11066 and 13361 and 10294 and 10997 | Luminescence normalised to mean of the 0 concentration wells (= 100), viability (Kasumi-1 cells; 3.90625 (nM), Fig. 7a): 95.2795 and 92.0841 and 96.2783 and 108.76 | Luminescence normalised to mean of the 0 concentration wells (= 100), viability (Kasumi-1 cells; 7.8125 (nM), Fig. 7a): 92.4688 and 92.6165 and 92.7331 and 104.173 | Luminescence normalised to mean of the 0 concentration wells (= 100), viability (Kasumi-1 cells; 15.625 (nM), Fig. 7a): 93.8591 and 91.0117 and 90.8778 and 102.899 | Luminescence normalised to mean of the 0 concentration wells (= 100), viability (Kasumi-1 cells; 31.25 (nM), Fig. 7a): 90.9617 and 89.442 and 87.8707 and 95.3843 | Luminescence normalised to mean of the 0 concentration wells (= 100), viability (Kasumi-1 cells; 62.5 (nM), Fig. 7a): 79.3349 and 80.8221 and 77.7007 and 87.2433 | Luminescence normalised to mean of the 0 concentration wells (= 100), viability (Kasumi-1 cells; 125 (nM), Fig. 7a): 55.7128 and 61.9037 and 60.2941 and 63.1681 | Luminescence normalised to mean of the 0 concentration wells (= 100), viability (Kasumi-1 cells; 250 (nM), Fig. 7a): 36.1537 and 33.7408 and 32.3168 and 37.4535 | Luminescence normalised to mean of the 0 concentration wells (= 100), viability (Kasumi-1 cells; 500 (nM), Fig. 7a): 17.5234 and 17.4933 and 16.4954 and 15.706 | Luminescence normalised to mean of the 0 concentration wells (= 100), viability (Kasumi-1 cells; 1000 (nM), Fig. 7a): 8.305 and 7.027 and 6.655 and 6.106 | Luminescence normalised to mean of the 0 concentration wells (= 100), viability (Kasumi-1 cells; 2000 (nM, 2U), Fig. 7a): 3.052 and 2.734 and 3.053 and 2.603 | Luminescence normalised to mean of the 0 concentration wells (= 100), viability (Kasumi-1 cells; 4000 (nM, 4U), Fig. 7a): 1.6168 and 1.952 and 1.504 and 1.607 | viability at 0.0411523 µM (Kasumi-1 cells; [1]): 92.4% | viability at 0.0411523 µM (Kasumi-1 cells; [2]): 91% | viability at 0.37037 µM (Kasumi-1 cells; [1]): 20.7% | viability at 0.37037 µM (Kasumi-1 cells; [2]): 21.4% | viability at 1.11111 µM (Kasumi-1 cells; [1]): 18% | viability at 1.11111 µM (Kasumi-1 cells; [2]): 16.5% | viability at 3.33333 µM (Kasumi-1 cells; [1]): 13.1% | viability at 3.33333 µM (Kasumi-1 cells; [2]): 13.4% | viability at 10 µM (Kasumi-1 cells; [1]): 12.1% | viability at 10 µM (Kasumi-1 cells; [2]): 12.3% | viability at […] (Kasumi-1 cells; [1]): 78.8% | viability at […] (Kasumi-1 cells; [2]): 78.2% | IC50 (Kasumi-1 cells; Fig. 7a, read-out: IC50, viability of Kasumi-1 AML cells): 156 nM | IC50 (Kasumi-1 cells; Fig. 7c, read-out: IC50, viability of Kasumi-1 cells): 131 nM

From paper PMC8617031, “Development of a BCL-xL and BCL-2 dual degrader with improved anti-leukemic activity,” (Nature Communications, 2021)
